The results in this text go back to patent publication US8168231B2, “Antimicrobial composition useful for preserving wood” (Rohm and Haas Company, priority 2006, dated 2012).

Holding throughout (type): cell-based
The test system of assay [1] is Pseudomonas aeruginosa (Ps. aeruginosa—ATCC # 9027). The assay is described as follows: Synergy test, microtiter plate high resolution MIC assay (M9GY medium). The note with it: ppm AI; for MIC: Pseudomonas aeruginosa, read-out: MIC of component acting alone (Ca or Cb). From the text: (§1) One measure of synergism is the industrially accepted method described by Kull, F. C.; Eisman, P. C.; Sylwestrowicz, H. D. and Mayer, R. L., in Applied Microbiology 9:538-541 (1961), using the ratio determined by the formula: Ca/CA+Cb/CB=Synergy Index (“SI”) wherein: • CA=concentration of compound A (first component) in ppm, acting alone, which produced an end point (MIC of Compound A). • Ca=concentration of compound A in ppm, in the mixture, which produced an end point. • CB=concentration of compound B (second component) in ppm, acting alone, which produced an end point (MIC of Compound B). • Cb=concentration of compound B in ppm, in the mixture, which produced an end point.
(§2) When the sum of Ca/CA and Cb/CB is greater than one, antagonism is indicated. […] The lower the SI, the greater the synergy shown by that particular mixture. The minimum inhibitory concentration (MIC) of an antimicrobial compound is the lowest concentration tested under a specific set of conditions that prevents the growth of added microorganisms.
(§3) Synergy tests were conducted using standard microtiter plate assays with media designed for optimal growth of the test microorganism. Minimal salt medium supplemented with 0.2% glucose and 0.1% yeast extract (M9GY medium) was used for bacteria testing; Potato Dextrose Broth (PDB medium) was used for yeast and mold testing. In this method, a wide range of combinations of microbicides was tested by conducting high resolution MIC assays in the presence of various concentrations of biocides. High resolution MICs were determined by adding varying amounts of microbicide to one column of a microtitre plate and doing subsequent ten-fold dilutions using an automated liquid handling system to obtain a series of end points ranging of active ingredient. The synergy of the combinations of the present invention was determined against two bacteria, Pseudomonas aeruginosa (Ps. aeruginosa—ATCC # 9027) and Staphylococcus aureus (S. aureus—ATCC # 6538), a yeast, Candida albicans (C. albicans—ATCC # 10231), and a mold, Aspergillus niger (A. niger—ATCC 16404). The bacteria were used at a concentration of about 1-6×10^6 bacteria per mL and the yeast and mold at 1−5×10^5 fungi per mL. These microorganisms are representative of natural contaminants in many consumer and industrial applications. […] (yeast and mold) or 30° C. (bacteria).

Assay [2] deals with Staphylococcus aureus (S. aureus—ATCC # 6538). Described as above. The note with it: ppm AI; for MIC: Staphylococcus aureus, read-out: MIC of component acting alone (Ca or Cb).
Excerpt: as §1, §2, §3

For assay [3], the system named is Candida albicans (C. albicans—ATCC # 10231). Nature of the assay: Synergy test, microtiter plate high resolution MIC assay (PDB medium). The note with it: ppm AI; for MIC: Candida albicans, read-out: MIC of component acting alone (Ca or Cb).
Excerpt: as §1, §2, §3

The test system of assay [4] is Aspergillus niger (A. niger—ATCC 16404). The assay is described as above. The note with it: ppm AI; for MIC: Aspergillus niger, read-out: MIC of component acting alone (Ca or Cb).
Excerpt: as §1, §2, §3

Where two headings read alike, the source gives them in different places.

Regarding `CCCCCCCCn1sc(Cl)c(Cl)c1=O` [DCOIT, 4,5-dichloro-2-n-octyl-4-isothiazolin-3-one], the MIC worked out at 3 µg/mL in assay [1] (ATCC9027, 24 h, Table 1, contact time 24 hrs); 2 µg/mL in assay [1] (ATCC9027, 24 h, Table 2, contact time 24 hrs); 3 µg/mL in assay [1] (ATCC9027, 48 h, Table 1, contact time 48 hrs); 4.25 µg/mL in assay [1] (ATCC9027, 48 h, Table 2, contact time 48 hrs); 0.5 µg/mL in assay [2] (ATCC6538, 24 h, Table 1, contact time 24 hrs); 0.65 µg/mL in assay [2] (ATCC6538, 24 h, Table 2, contact time 24 hrs). Further, the MIC turned out to be 0.5 µg/mL in assay [2] (ATCC6538, 48 h, Table 1, contact time 48 hrs); 0.65 µg/mL in assay [2] (ATCC6538, 48 h, Table 2, contact time 48 hrs); 1 µg/mL in assay [3] (ATCC10231, Table 1, contact time 48 hrs); 1 µg/mL in assay [3] (ATCC10231, Table 1, contact time 72 hrs); 0.25 µg/mL in assay [4] (ATCC16404, 72 h, Table 1, contact time 3 days); 0.0875 µg/mL in assay [4] (ATCC16404, 72 h, Table 2, contact time 3 days). For the same compound, the MIC in assay [4] (ATCC16404, 168 h, Table 1, contact time 7 days) came out at 0.25 µg/mL; in assay [4] (ATCC16404, 168 h, Table 2, contact time 7 days), 0.2 µg/mL.

On to “Monoethanolamine complex of copper carbonate [Cu-MEA]”, for which the “MIC of component acting alone (Ca or Cb)” value in assay [1] (Table 1, contact time 24 hrs) worked out at 120 ppm; in assay [1] (Table 1, contact time 48 hrs), 120 ppm; in assay [2] (Table 1, contact time 24 hrs), 80 ppm; in assay [2] (Table 1, contact time 48 hrs), 200 ppm; in assay [3] (Table 1, contact time 48 hrs), 200 ppm; in assay [3] (Table 1, contact time 72 hrs), 200 ppm. For the same compound, the “MIC of component acting alone (Ca or Cb)” value was 300 ppm in assay [4] (Table 1, contact time 3 days) and 300 ppm in assay [4] (Table 1, contact time 7 days).

One may read the MIC as the lowest concentration that inhibits growth of the organism.
